This is an account of results in patent US20230116972A1, “CD38 MODULATORS AND METHODS OF USE THEREOF” (Cytokinetics, Inc., priority 2021, published 2023).

Data set [1] has as its target T1, human CD38 (Homo sapiens, UniProt P28907).
T1 sequence (P28907 1-300): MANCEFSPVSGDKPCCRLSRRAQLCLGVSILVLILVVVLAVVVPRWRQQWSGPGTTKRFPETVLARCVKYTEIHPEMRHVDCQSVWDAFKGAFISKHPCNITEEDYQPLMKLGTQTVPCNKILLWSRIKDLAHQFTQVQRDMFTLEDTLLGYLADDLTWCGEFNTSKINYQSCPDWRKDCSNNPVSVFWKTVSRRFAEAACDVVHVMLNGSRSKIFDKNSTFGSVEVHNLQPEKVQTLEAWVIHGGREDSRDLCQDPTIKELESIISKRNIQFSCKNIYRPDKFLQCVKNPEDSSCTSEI
The experiment in a line: human recombinant CD38 enzyme assay (hydrolysis of NAD+). In kind it is biochemical. As to conditions: human recombinant CD38, 0.4 nM enzyme, 62.5 μM NAD+; read-out: hCD38 BioChem IC50. A digest of the protocol: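 Cell-free recombinant enzyme, NAD+ substrate, 60 min at RT. Stop/detect: ethanol/ADH plus semicarbazide and a CD38 inhibitor (15 min), then NaOH, then resazurin/diaphorase (15 min). Remaining NAD+ read as resorufin fluorescence, Ex/Em 540/590 nm. Inhibition fitted from dose responses.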

For data set [2], the target named is T2, CYP2C9 (Homo sapiens, UniProt P11712).
T2 construct: from tissue; host or cells: human liver microsomes (pooled in the time-dependent assay)
The data set can be described thus: direct inhibition of CYP450 in human liver microsomes. It counts as in vitro ADME. The conditions noted are these: for activity at 3 µM / activity at 10 µM / activity at 50 µM: % of non-inhibited control, read-out: CYP2C9 T0 % activity; for IC50: estimated from 3, 10, 50 uM, read-out: CYP2C9 T0 estimated IC50. As to the method:
(§1) Direct inhibition: […] A Perspective of the Pharmaceutical Research and Manufacturers of America”, Drug Metabolism and Disposition, 37 (7): 1355, 2009). For 3A4, the % activity was measured using both midazolam and testosterone as probes. Each compound at 3, 10, and 50 μM was incubated with HLM, NADPH and CYP isoenzyme specific probe substrates at 37° C. Inhibition of the probe substrate metabolism was quantified using LC/MS/MS. […] Known chemical inhibitors specific for the individual CYP isoenzymes were evaluated in parallel as positive controls and these compounds produced CYP inhibition consistent with published results (Walsky & Obach RS. “Validated assays for human cytochrome P450 activities”. Drug Metab Dispos. 32(6):647-60, 2004). Note that, in Tables 6 and 7, the “Compound No” corresponds to the compound numbers in Table 1.

Data set [3] deals with T3, CYP2C19 (Homo sapiens, UniProt P33261).
T3 construct: from tissue; host or cells: human liver microsomes (pooled in the time-dependent assay)
Described as above. In kind it is in vitro ADME. As to conditions: for activity at 3 µM / activity at 10 µM / activity at 50 µM: % of non-inhibited control, read-out: CYP2C19 T0 % activity; for IC50: estimated from 3, 10, 50 uM, read-out: CYP2C19 T0 estimated IC50. Here is the method:
as §1

Data set [4] deals with T4, CYP1A2 (Homo sapiens, UniProt P05177).
T4 construct: from tissue; host or cells: human liver microsomes (pooled in the time-dependent assay)
T4 sequence (P05177 1-516): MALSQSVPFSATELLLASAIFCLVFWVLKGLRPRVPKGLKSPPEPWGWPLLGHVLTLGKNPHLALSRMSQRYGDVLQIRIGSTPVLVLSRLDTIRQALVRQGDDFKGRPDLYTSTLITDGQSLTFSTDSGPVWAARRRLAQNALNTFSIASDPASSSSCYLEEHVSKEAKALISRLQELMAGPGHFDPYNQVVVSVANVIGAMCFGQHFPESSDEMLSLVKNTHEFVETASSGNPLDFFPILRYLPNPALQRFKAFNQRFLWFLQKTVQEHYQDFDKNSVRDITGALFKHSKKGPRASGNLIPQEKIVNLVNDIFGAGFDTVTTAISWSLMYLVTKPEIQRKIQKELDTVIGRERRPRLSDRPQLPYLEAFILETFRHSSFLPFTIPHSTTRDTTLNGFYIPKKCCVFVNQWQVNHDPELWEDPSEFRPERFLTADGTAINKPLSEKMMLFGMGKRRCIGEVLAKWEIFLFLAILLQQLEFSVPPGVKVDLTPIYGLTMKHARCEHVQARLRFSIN
The data set is described as above. It counts as in vitro ADME. As to the method:
as §1

Data set [5] deals with T5, CYP2B6 (Homo sapiens, UniProt P20813).
T5 construct: from tissue; host or cells: human liver microsomes (pooled in the time-dependent assay)
T5 sequence (P20813 1-491): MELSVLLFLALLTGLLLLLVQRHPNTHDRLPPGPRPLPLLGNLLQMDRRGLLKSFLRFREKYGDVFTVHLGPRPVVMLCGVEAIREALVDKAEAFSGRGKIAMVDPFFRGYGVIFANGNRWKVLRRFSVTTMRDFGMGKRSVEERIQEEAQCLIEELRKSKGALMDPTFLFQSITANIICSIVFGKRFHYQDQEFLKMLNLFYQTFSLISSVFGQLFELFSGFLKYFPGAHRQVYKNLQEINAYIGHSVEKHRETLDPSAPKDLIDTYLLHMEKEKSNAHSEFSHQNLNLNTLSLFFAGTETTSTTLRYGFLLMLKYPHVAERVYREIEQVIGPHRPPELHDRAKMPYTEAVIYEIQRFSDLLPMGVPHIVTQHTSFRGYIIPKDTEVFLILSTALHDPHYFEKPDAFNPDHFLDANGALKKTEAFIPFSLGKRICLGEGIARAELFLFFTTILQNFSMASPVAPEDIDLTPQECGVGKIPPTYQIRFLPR
The description is as above. It counts as in vitro ADME. As to conditions: for activity at 3 µM / activity at 10 µM / activity at 50 µM: % of non-inhibited control, read-out: CYP2B6 T0 % activity; for IC50: estimated from 3, 10, 50 uM, read-out: CYP2B6 T0 estimated IC50. As to the method:
as §1

Setting [6] is: 3 uM, human liver microsomes, % of non-inhibited control, read-out: CYP1A2 T0 % activity.
The mark [7] stands for this setting: 10 uM, human liver microsomes, % of non-inhibited control, read-out: CYP1A2 T0 % activity.
Where [8] appears, read: 50 uM, human liver microsomes, % of non-inhibited control, read-out: CYP1A2 T0 % activity.
The mark [9] stands for this setting: human liver microsomes, estimated from 3, 10, 50 uM, read-out: CYP1A2 T0 estimated IC50.

Like-named read-outs stand apart in the source and are kept apart here.

T3 sequence (P33261 whole entry): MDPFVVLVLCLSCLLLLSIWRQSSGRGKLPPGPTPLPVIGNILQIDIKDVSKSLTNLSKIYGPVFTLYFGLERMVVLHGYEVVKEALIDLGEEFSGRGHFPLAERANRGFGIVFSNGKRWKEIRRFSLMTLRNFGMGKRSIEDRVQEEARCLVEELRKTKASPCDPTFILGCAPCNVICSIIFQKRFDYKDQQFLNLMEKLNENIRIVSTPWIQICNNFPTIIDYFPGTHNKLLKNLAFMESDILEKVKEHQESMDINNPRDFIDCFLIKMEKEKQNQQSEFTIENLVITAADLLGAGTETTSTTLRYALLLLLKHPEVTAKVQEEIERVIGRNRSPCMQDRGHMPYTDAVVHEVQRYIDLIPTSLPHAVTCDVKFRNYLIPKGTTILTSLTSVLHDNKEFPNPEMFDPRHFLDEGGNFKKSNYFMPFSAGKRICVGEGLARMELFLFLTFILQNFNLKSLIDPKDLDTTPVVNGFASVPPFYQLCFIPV
T2 sequence (P11712 whole entry): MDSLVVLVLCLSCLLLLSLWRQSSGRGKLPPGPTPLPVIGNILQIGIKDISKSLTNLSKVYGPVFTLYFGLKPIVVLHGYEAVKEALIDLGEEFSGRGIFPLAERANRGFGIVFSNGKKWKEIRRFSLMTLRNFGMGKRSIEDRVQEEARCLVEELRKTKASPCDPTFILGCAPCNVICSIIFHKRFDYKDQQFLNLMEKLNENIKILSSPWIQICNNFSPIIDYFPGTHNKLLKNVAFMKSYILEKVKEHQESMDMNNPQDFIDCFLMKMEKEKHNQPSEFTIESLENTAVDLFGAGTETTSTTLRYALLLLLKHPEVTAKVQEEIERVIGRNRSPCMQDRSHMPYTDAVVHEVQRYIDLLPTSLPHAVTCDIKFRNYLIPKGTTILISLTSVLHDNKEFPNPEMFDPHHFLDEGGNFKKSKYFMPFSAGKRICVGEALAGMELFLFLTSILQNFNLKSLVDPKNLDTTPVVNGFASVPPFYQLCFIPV

As usually defined, the IC50 is the concentration that inhibits the measured activity by half. Take `CO[C@H]1CC[C@H](NC(=O)c2nccc(-c3cncn3C)n2)CC1` [Compound 148, N-((1r,4r)-4-methoxycyclohexyl)-4-(1-methyl-1H-imidazol-5-yl)pyrimidine-2-carboxamide]: in data set [1], the concentration for half-maximal inhibition (IC50) is 0.07 µM.
For `CO[C@H]1CC[C@H](NC(=O)c2cc(C3CCOCC3)nc(-c3cncn3C)n2)CC1` [Compound 199, N-((1r,4r)-4-methoxycyclohexyl)-2-(1-methyl-1H-imidazol-5-yl)-6-(tetrahydro-2H-pyran-4-yl)pyrimidine-4-carboxamide], the IC50 was 0.0152 µM in data set [1]; > 50 µM in data set [2]; < 50 µM in data set [3]; > 50 µM in data set [4] (setting [9]); > 50 µM in data set [5]. In addition, the activity at 3 µM turned out to be 101% in data set [2], 92% in data set [3], 96% in data set [4] (setting [6]) and 95% in data set [5]. The activity at 10 µM in data set [2] turned out to be 96%; in data set [3] it was 85%; in data set [4] (setting [7]), 96%; in data set [5], 80%. Also, the activity at 50 µM was 69% in data set [2], 39% in data set [3], 85% in data set [4] (setting [8]) and 53% in data set [5].
Regarding `CC(C)(O)c1ccc(NC(=O)c2nccc(-n3ccnc3)n2)cn1` [Compound 249, N-(6-(2-hydroxypropan-2-yl)pyridin-3-yl)-4-(1H-imidazol-1-yl)pyrimidine-2-carboxamide], the IC50 in data set [1] was 0.0119 µM; in data set [2], > 50 µM; in data set [3], > 50 µM; in data set [4], > 50 µM; in data set [5], > 50 µM. The activity at 3 µM in data set [2] was 106%; in data set [3] it was 95%; in data set [4] (human, microsomes), 99%; in data set [5], 98%. For the same molecule, the activity at 10 µM in data set [2] is 103%; in data set [3], 96%; in data set [4] (human, microsomes), 93%; in data set [5], 98%. Also, the activity at 50 µM in data set [2] turned out to be 92%; in data set [3] it was 74%; in data set [4] (human, microsomes), 81%; in data set [5], 92%.
As to `Cn1cncc1-c1ccnc(C(=O)Nc2ccc(C(C)(C)O)nc2)n1` [Compound 250, N-(6-(2-hydroxypropan-2-yl)pyridin-3-yl)-4-(1-methyl-1H-imidazol-5-yl)pyrimidine-2-carboxamide], the IC50 in data set [1] was 0.0141 µM; in data set [2] it was > 50 µM; in data set [3], > 50 µM; in data set [4] it was < 50 µM; in data set [5], > 50 µM. The activity at 3 µM amounted to 99% in data set [2]; 88% in data set [3]; 88% in data set [4] (human, microsomes); 101% in data set [5]. The activity at 10 µM in data set [2] stood at 94%; in data set [3], 88%; in data set [4] (human, microsomes), 69%; in data set [5], 99%. Further, the activity at 50 µM in data set [2] came out at 89%; in data set [3], 66%; in data set [4] (human, microsomes), 34%; in data set [5] it was 89%.
For `Cn1cncc1-c1ccnc(C(=O)N[C@H]2CC[C@H](O)CC2)n1` [Compound 256, N-((1r,4r)-4-hydroxycyclohexyl)-4-(1-methyl-1H-imidazol-5-yl)pyrimidine-2-carboxamide], the concentration for half-maximal inhibition (IC50) in data set [1] was 0.0684 µM; in data set [2], > 50 µM; in data set [3] it was > 50 µM; in data set [4] (setting [9]) it was > 50 µM; in data set [5] it was > 50 µM. Moreover, the activity at 3 µM was found to be 90% in data set [2], 97% in data set [3], 94% in data set [4] (setting [6]) and 103% in data set [5]. Moreover, the activity at 10 µM is 94% in data set [2], 96% in data set [3], 92% in data set [4] (setting [7]) and 101% in data set [5]. The activity at 50 µM in data set [2] was found to be 86%; in data set [3], 88%; in data set [4] (setting [8]) it was 78%; in data set [5], 91%.
With `CO[C@H]1CC[C@H](NC(=O)c2cc(C3CCC(F)(F)CC3)nc(-c3cncn3C)n2)CC1` [Compound 289, 6-(4,4-difluorocyclohexyl)-N-((1r,4r)-4-methoxycyclohexyl)-2-(1-methyl-1H-imidazol-5-yl)pyrimidine-4-carboxamide], the IC50 is 0.007 µM in data set [1]; < 50 µM in data set [2]; < 50 µM in data set [3]; > 50 µM in data set [4] (setting [9]); > 50 µM in data set [5]. The activity at 3 µM in data set [2] was found to be 96%; in data set [3] it was 83%; in data set [4] (setting [6]), 100%; in data set [5], 98%. The activity at 10 µM in data set [2] is 81%; in data set [3], 63%; in data set [4] (setting [7]), 95%; in data set [5] it was 95%. The activity at 50 µM worked out at 49% in data set [2], 23% in data set [3], 81% in data set [4] (setting [8]) and 79% in data set [5].
For the molecule `CO[C@H]1CC[C@H](NC(=O)c2cc(C3(C)COC3)nc(-c3cncn3C)n2)CC1` [Compound 295, N-((1r,4r)-4-methoxycyclohexyl)-2-(1-methyl-1H-imidazol-5-yl)-6-(3-methyloxetan-3-yl)pyrimidine-4-carboxamide], the IC50 in data set [1] was 0.0185 µM; in data set [2], > 50 µM; in data set [3], > 50 µM; in data set [4] (setting [9]), > 50 µM; in data set [5] it was > 50 µM. Further, the activity at 3 µM in data set [2] came to 91%; in data set [3], 108%; in data set [4] (setting [6]), 101%; in data set [5] it was 96%. Moreover, the activity at 10 µM in data set [2] is 85%; in data set [3] it was 100%; in data set [4] (setting [7]), 98%; in data set [5], 91%. Also, the activity at 50 µM in data set [2] was determined as 63%; in data set [3], 79%; in data set [4] (setting [8]) it was 97%; in data set [5], 79%.
